In ChEMBL document CHEMBL1201862, “PubChem BioAssay data set” (2004):
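Test compounds were applied to cells in 96-well plates for 48 hours at 5 doses. GI50 = concentration required for 50% inhibition of growth.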 Activity calls are given as the source filed them. Rule as the data show it: active = GI50 up to about 1.1 µM and inactive = higher.

Legend:
Experiment in all cases: growth of human tumour cells (NCI), 48 h
[1] = tested on: SR
[2] = tested on: OVCAR-5
[3] = tested on: NCI-H460
[4] = tested on: LOX IMVI
[5] = tested on: HCT-116
[6] = tested on: HL-60
[7] = tested on: PC-3
[8] = tested on: SK-OV-3
[9] = tested on: SW-620
[10] = tested on: SK-MEL-28
[11] = tested on: TK-10
[12] = tested on: NCI-H23
[13] = tested on: MDA-N
[14] = tested on: OVCAR-4
[15] = tested on: HCC 2998
[16] = tested on: RXF 393
[17] = tested on: HOP-92
[18] = tested on: SF-295
[19] = tested on: Malme-3M
[20] = tested on: ACHN
[21] = tested on: UO-31
[22] = tested on: UACC-257
[23] = tested on: SF-268
[24] = tested on: Hs-578T
[25] = tested on: HCT-15
[26] = tested on: U-251
[27] = tested on: CCRF-CEM
[28] = tested on: MDA-MB-231
[29] = tested on: UACC-62
[30] = tested on: M14
[31] = tested on: HT-29
[32] = tested on: SNB-19
[33] = tested on: OVCAR-3
[34] = tested on: SNB-75
[35] = tested on: A549
[36] = tested on: SN12C
[37] = tested on: KM12
[38] = tested on: T47D
[39] = tested on: MDA-MB-435
[40] = tested on: SF-539
[41] = tested on: EKVX
[42] = tested on: NCI/ADR-RES
[43] = tested on: K562
[44] = tested on: A498
[45] = tested on: RPMI-8226
[46] = tested on: IGROV-1
[47] = tested on: HOP-62
[48] = tested on: MCF7
[49] = tested on: CAKI-1
[50] = tested on: NCI-H522
[51] = tested on: MOLT-4
[52] = tested on: SK-MEL-2
[53] = tested on: 786-0
[54] = tested on: NCI-H226
[55] = tested on: COLO 205
[56] = tested on: SK-MEL-5
[57] = tested on: DU-145
[58] = tested on: OVCAR-8
[59] = tested on: BT-549

Measured: GI50

CC(C)(C)CC(C)(C)N/C(N)=N/O
56.1 µM: [25]
inactive: [1] > 81.5 µM | [2] > 100 µM | [3] > 83.2 µM | [4] > 100 µM | [5] 9.71 µM | [6] > 55.7 µM | [7] 15.1 µM | [8] 24.1 µM | [9] > 100 µM | [10] > 100 µM | [11] > 48.5 µM | [12] > 91 µM | [13] > 100 µM | [14] > 37.4 µM | [15] > 100 µM | [16] > 100 µM | [17] 20.3 µM | [18] > 100 µM | [19] > 100 µM | [20] 6.71 µM | [21] > 21.7 µM | [22] 41.4 µM | [23] > 89.3 µM | [24] 15 µM | [26] > 100 µM | [27] > 100 µM | [28] > 100 µM | [29] > 100 µM | [30] > 100 µM | [31] > 100 µM | [32] > 100 µM | [33] 22.2 µM | [34] > 86.5 µM | [35] > 100 µM | [36] > 100 µM | [37] > 100 µM | [38] > 32.7 µM | [39] > 100 µM | [40] > 60.8 µM | [41] > 89.5 µM | [42] 97.3 µM | [43] 28.8 µM | [44] > 22.6 µM | [45] > 100 µM | [46] > 86.7 µM | [47] > 100 µM | [48] 8.79 µM | [49] > 100 µM | [50] > 100 µM | [51] > 100 µM | [52] > 100 µM | [53] > 100 µM | [54] 58.5 µM | [55] > 100 µM | [56] 51.8 µM | [57] > 100 µM | [58] > 80 µM

O=C1CN(c2cccc(Cl)c2)C(=O)CN1CCN1CC(=O)N(c2cccc(Cl)c2)CC1=O
inactive: [1] > 100 µM | [2] > 100 µM | [3] > 100 µM | [5] > 100 µM | [6] > 100 µM | [7] > 100 µM | [8] > 100 µM | [9] > 100 µM | [10] > 100 µM | [11] > 100 µM | [12] 26.4 µM | [13] > 100 µM | [14] > 100 µM | [15] > 100 µM | [16] > 100 µM | [17] > 100 µM | [18] > 100 µM | [19] > 100 µM | [20] > 100 µM | [21] > 100 µM | [22] > 100 µM | [23] > 100 µM | [24] > 100 µM | [26] > 100 µM | [27] > 100 µM | [29] > 100 µM | [30] > 100 µM | [31] > 100 µM | [32] > 100 µM | [33] > 100 µM | [59] > 100 µM | [34] > 100 µM | [35] > 100 µM | [36] > 100 µM | [37] > 100 µM | [39] > 100 µM | [40] > 100 µM | [41] > 100 µM | [44] > 100 µM | [45] > 100 µM | [46] > 100 µM | [47] > 100 µM | [48] > 100 µM | [49] > 100 µM | [50] > 100 µM | [51] > 100 µM | [53] > 100 µM | [55] > 100 µM | [56] > 100 µM | [57] > 100 µM | [58] > 100 µM
> 100 µM: [25]
